Earlier results, collected in patent publication US20070172525A1, “Anti-diabetic combinations” (priority 2007, published 2007).

Columns and labels:
patients with T2DM [1] = test system: patients with T2DM
patients with T2DM [2] = test system: patients with T2DM; remark: listed apart in the source
patients with T2DM [3] = test system: patients with T2DM; remark: listed apart in the source
[4] = oral
[5] = sitagliptin 100 mg daily added to metformin
[6] = monotherapy, 100 or 200 mg daily

With `N[C@@H](CC(=O)N1CCn2c(nnc2C(F)(F)F)C1)Cc1cc(F)c(F)cc1F` [Sitagliptin] as the molecule, how does the “Patients achieving a HbA1C of <7%” value (patients with T2DM [1]; sitagliptin 100 mg daily added to at least 1,500 mg per day of metformin, mean HbA1C of 8%) read?
Its value is 47%.

What about the Fasting glucose (patients with T2DM [1]; [5]) of the same molecule?
The Fasting glucose was “significant reductions”.

And the “Mean placebo-subtracted reduction in HbA1C” value (patients with T2DM [1]; [5])?
The value was 0.65%.

What about the “Patients achieved a HbA1C of <7%” value (patients with T2DM [2]; 24 weeks, sitagliptin 100 mg daily plus pioglitazone versus pioglitazone alone) of the same molecule?
Its value is 45.4%.

What about the “Mean HbA1C reduction” value (patients with T2DM [2]; sitagliptin 100 mg daily added to pioglitazone (30 or 45 mg daily), 24 weeks, mean HbA1C 8.1%) of the same molecule?
The value was 0.7%.

And the “Rates of hypoglycemia or weight gain relative to pioglitazone alone” value (patients with T2DM [2]; sitagliptin added to pioglitazone)?
The value was “not associated with increased rates”.

What about the Weight gain (patients with T2DM [3]; 24-week monotherapy studies) of the same molecule?
The Weight gain was “no significant weight gain”.

And the HbA1C (patients with T2DM [3]; [6])?
Its HbA1C is “significantly reduced”.

What about the Hypoglycemia (patients with T2DM [3]; [6]) of the same molecule?
The Hypoglycemia was “no significant increase”.

With `CN(C)C(=N)N=C(N)N` [Conventional Metformin, Metformin] as the molecule, how does the “Time to complete gastrointestinal absorption after ingestion” value [4] read?
The value was at most 6 h.
